Measurements as given in patent publication US6936726B2, “Flavanol and cysteamine conjugates” (Consejo Superior de Investigaciones Cientificas, priority 2000, dated 2005).

Experiment: DPPH (1,1-diphenyl-2-picrylhydracil) antioxidant/antiradical power assay
Details: initial DPPH• around 60 μM; absorbance at 517 nm; calculated from the curves of FIG. 3
Description: FIG. 3. Antioxidant efficacy of phenolic compounds in the DPPH assay. The absorbance (A) at 517 nm is a measure of the amount of free radical remaining in solution. (1−A/A0)×100 represents the percentage of DPPH that has reacted with the antioxidant. The amount of antioxidant expressed as micromoles per micromole of initial DPPH• to correct the possible day to day variation in the amount of initial DPPH• The initial concentration of DPPH• is calculated from the absorbance (A) and a calibration line. Each point represents the mean of three determinations.
The new molecules are potent antioxidants with an excellent capacity to capture free radicals. The conjugates are more efficient than Trolox (water-soluble analogue of Vitamin E) in the DPPH assay (1,1-diphenyl-2-picrylhydracil) [Brand-Williams, W., Cuvelier, M. E., Berset, C., Lebensm.-Wiss. u.-Technol., 28, 25-30 (1995)]. The conjugates are also more efficient than the corresponding non-derived species.
The new pure products are strong antioxidants/capturers of free radicals. FIG. 3 presents the results of the DPPH test (1,1-diphenyl-2-pycrylhydracil). The values of EC50 (effective concentration 50) are calculated from the curves. EC50 is the amount of antioxidant required to reduce the initial concentration to half (around 60 μM) of DPPH•. This amount is expressed as micromoles antioxidant/micromoles initial DPPH•. The EC50 values for compounds relevant to the present invention are: Trolox (water-soluble analogue of Vitamin E), 0.26; (−)-epicatechine, 0.19, 4ξ-(2-aminoethylthio)epicatechine I, 0.11; 4ξ-(2-aminoethylthio)epicatechinegalate III, 0.11.

Compound	EC50 (amount of antioxidant required to reduce the initial concentration of DPPH• to half)
NCCSC1c2c(O)cc(O)cc2O[C@H](c2ccc(O)c(O)c2)[C@H]1O (stereo partly shown) [I, 4ξ-(2-aminoethylthio)epicatechine]	0.11 micromoles antioxidant/micromoles initial DPPH•
NCCSC1c2c(O)cc(O)cc2O[C@H](c2ccc(O)c(O)c2)[C@H]1OC(=O)c1cc(O)c(O)c(O)c1 (stereo partly shown) [III, 4ξ-(2-aminoethylthio)epicatechinegalate]	0.11 micromoles antioxidant/micromoles initial DPPH•
Cc1c(C)c2c(c(C)c1O)CCC(C)(C(=O)O)O2 (stereo not shown) [Trolox]	0.26 micromoles antioxidant/micromoles initial DPPH•
(−)-epicatechine	0.19 micromoles antioxidant/micromoles initial DPPH•
